Test [1] in a line: Inhibition of CRTH2 receptor-mediated chemotaxis in human basophils.
Test [2] in a line: Antagonist activity at CRTh2 in human peripheral blood assessed as inhibition of PGD2-induced eosinophil shape change at room temperature by flow cytometry.

With `Cc1c(-c2cn(C(C)C)c(=O)c3ccccc23)c2cc(F)ccc2n1CC(=O)O`, the IC50 was 1.2 nM in test [1] and 8 nM in test [2]. For `Cc1c(-c2cn(CCCC(F)(F)F)c(=O)c3ccccc23)c2cc(F)ccc2n1CC(=O)O`, in test [2], the IC50 was 3 nM. Take `Cc1c(-c2cn(CC(C)(C)C)c(=O)c3ccccc23)c2cc(F)ccc2n1CC(=O)O`: the IC50 in test [2] stood at 18 nM. Regarding `Cc1c(-c2cn(CC(F)(F)F)c(=O)c3ccccc23)c2cc(F)ccc2n1CC(=O)O`, the IC50 in test [2] was 19 nM.

Values taken from BindingDB's records for doi:10.1021/jm401509e (Pfizer, 2014).
